According to patent US20080299118A1, “FXR Agonists for the Treatment of Malignancies” (Wyeth, priority 2007, published 2008):

Key:
RECK gene [1] = assay: RECK expression in mouse primary hepatocytes, real-time PCR; type: cell-based; conditions: 1 μM; for RECK expression, fold induction relative to t=0: normalized to GAPDH, p<0.01
Description: Mouse primary hepatocytes were plated at 1.5×10^5 cells per well in 24-well plates and cultured in Williams E medium supplemented with 15 mM HEPES pH 7.4, 1% insulin-transferrin-selenium supplement, 1 nM dexamethasone, 50 U/ml penicillin, and 50 μg/ml streptomycin. Cells were treated with DMSO vehicle or with the FXR agonists, Compound A or Compound B ((E)-3-(2-chloro-4-((3-(2,6-dichlorophenyl)-5-isopropylisoxazol-4-yl)methoxy)styryl)benzoic acid). Cells were harvested at various times after treatment and RNA was prepared for real-time PCR analysis.
RECK expression levels were normalized to GAPDH and the mean level of RECK expression at t=0 was defined as 1.0.

RECK gene [2] = assay: RECK expression in liver of male LDLR deficient mice, real-time PCR of liver RNA; type: in vivo, mouse; conditions: Western diet, 30 mg/kg by gavage once a day for 7 days, liver RNA 4 h after final treatment, p<0.01
Description: Male LDLR deficient mice, fed a Western diet, were administered vehicle or 30 mg/kg Compound A [isopropyl 3-(3,4-difluorobenzoyl)-1,1-dimethyl-1,2,3,6-tetrahydroazepino[4,5-b]indole-5-carboxylate] by gavage once a day for 7 days. Four hours after the final treatment, mice were euthanized and real-time PCR analysis of liver RNA was performed.
RECK expression levels were normalized to GAPDH and the mean level of RECK expression in vehicle treated mice was defined as 1.0. Data are presented as the mean ± standard error of the mean (SEM). 6 mice were tested in each group.

RECK gene [3] = assay: Kinetics of induction of RECK expression in liver after a single dose, wildtype and FXR deficient mice; type: in vivo, mouse; conditions: wildtype mice, single dose 30 mg/kg by oral gavage
Description: Wildtype or FXR deficient male and female mice were administered a single dose of vehicle or 30 mg/kg Compound A by oral gavage. Mice were euthanized at various times after treatment and real-time PCR analysis of liver RNA was performed.
RECK expression levels were normalized to GAPDH, and the mean level of RECK expression at t=0 was defined as 1.0. […] The kinetics of induction of RECK expression by Compound A are consistent with direct induction of RECK expression by FXR activation.

RECK gene [4] = assay: RECK expression in liver of wildtype, FXR deficient and SHP deficient mice, real-time PCR of liver RNA; type: in vivo, mouse; conditions: 30 mg/kg by gavage once a day for 7 days
Description: Wildtype or FXR deficient mice on the C57B1/6 background and wildtype or SHP deficient mice on the 129 background were fed a standard chow diet. Mice were administered vehicle or 30 mg/kg Compound A by gavage once a day for 7 days. Four hours after the final treatment, mice were euthanized and real-time PCR analysis of liver RNA was performed.
RECK expression levels were normalized to GAPDH and the mean level of RECK expression in vehicle treated female C57B1/6 mice was defined as 1.0. Data are presented as the mean ±SEM. 6 mice were tested in each group. […] (p<0.01). […] (p<0.01).

RECK gene [5] = assay: RECK expression in human hepatocytes, real-time PCR; type: cell-based; conditions: 1 μM, 24 hours of treatment, p<0.05
Description: Confluent monolayers of human hepatocytes in 24-well plates, cultured in InVitroGRO HI medium, were treated with DMSO vehicle or Compound A. After 24 hours of treatment, the cells were harvested and RNA was prepared for real time PCR analysis.
RECK expression was normalized to GAPDH, and the mean level of RECK expression in DMSO treated cells was defined as 1.0. The data are presented as the mean ± SEM from triplicate determinations.

SMILES | Time of peak RECK expression following treatment (RECK gene [1]) [h] | RECK expression, fold induction relative to t=0 (RECK gene [1]) | RECK expression (normalized to GAPDH, vehicle = 1.0) (RECK gene [2]) | RECK expression, fold induction relative to t=0 (RECK gene [3]; liver RNA) | Time after administration at which induction of RECK expression was observed (RECK gene [3]; expression continued to increase at later time points, p<0.01) [h] | RECK expression (normalized to GAPDH) (RECK gene [4]; FXR deficient mice (C57B1/6 background)) | RECK expression (normalized to GAPDH) (RECK gene [4]; SHP deficient mice (129 background), p=0.02 in males, p<0.01 in females) | RECK expression (normalized to GAPDH) (RECK gene [4]; male and female wildtype C57B1/6 mice, p<0.01) | Induction of RECK expression, female compared to male (RECK gene [4]; wildtype 129 mice, p<0.01) | Induction of RECK expression, female compared to male (RECK gene [4]; wildtype C57B1/6 mice) | RECK expression (normalized to GAPDH, DMSO = 1.0) (RECK gene [5])
CC(C)c1onc(-c2c(Cl)cccc2Cl)c1COc1ccc(/C=C/c2cccc(C(=O)O)c2)c(Cl)c1 [Compound B, (E)-3-(2-chloro-4-((3-(2,6-dichlorophenyl)-5-isopropylisoxazol-4-yl)methoxy)styryl)benzoic acid, reference compound] | 4 | induced RECK expression | – | – | – | – | – | – | – | – | –
CC(C)OC(=O)C1=CN(C(=O)c2ccc(F)c(F)c2)CC(C)(C)c2c1[nH]c1ccccc21 [Compound A, isopropyl 3-(3,4-difluorobenzoyl)-1,1-dimethyl-1,2,3,6-tetrahydroazepino[4,5-b]indole-5-carboxylate] | 4 | induced RECK expression | RECK expression is induced | induced RECK expression | ≤ 2 | failed to induce RECK expression | induction of RECK expression was observed | induced expression of the RECK gene | enhanced compared to male 129 mice | Enhanced induction of RECK expression was observed in female compared to male | induced expression of the RECK gene
